Assay results: ChEMBL document CHEMBL1136576, “Synthesis of N,N',N"-trisubstituted thiourea derivatives and their antagonist effect on the vanilloid receptor” (Bioorg Med Chem Lett, 2003)

How the values were obtained:
Vanilloid receptor [1] = biological target: T1, Vanilloid receptor (Rattus norvegicus, UniProt Q9ERZ8+Q9WUD2+O35433); assay: Antagonistic activity against vanilloid receptor as concentration to reduce the response to […] by 50% from neonatal rat culture spinal sensory neurons using [Ca2+] -influx assay; type: functional
Vanilloid receptor [2] = biological target: T1, Vanilloid receptor; assay: Agonistic activity towards vanilloid receptor, [Ca2+] influx in neonatal rat spinal sensory neuronal culture; type: functional

CCN(CCCc1ccc(O)c(OC)c1)/C(S)=N/CCc1ccccc1
IC50 (Vanilloid receptor [1]): > 30 nM

COc1cc(CCCN(/C(S)=N/CCc2ccccc2)C2CCCCC2)ccc1O
IC50 (Vanilloid receptor [1]): 3 nM

COc1cc(CCCN(CCc2ccc(C)cc2)/C(S)=N/CCc2ccccc2)ccc1O
IC50 (Vanilloid receptor [1]): 0.95 nM

COc1cc(CCCCN(CCc2ccccc2)/C(S)=N/CCc2ccccc2)ccc1O
IC50 (Vanilloid receptor [1]): 6.1 nM

COc1cc(CCCN(/C(S)=N/CCc2ccccc2)C(C)C)ccc1O
IC50 (Vanilloid receptor [1]): 2.5 nM

COc1cc(CCCN(CCCc2ccccc2)/C(S)=N/CCc2ccccc2)ccc1O
IC50 (Vanilloid receptor [1]): 3.2 nM

CCCCN(CCCc1ccc(O)c(OC)c1)/C(S)=N/CCc1ccccc1
IC50 (Vanilloid receptor [1]): 10 nM

COc1cc(CCCN(CCc2ccc([N+](=O)[O-])cc2)/C(S)=N/CCc2ccccc2)ccc1O
IC50 (Vanilloid receptor [1]): 0.5 nM

CCCCCCCCN(CCCc1ccc(O)c(OC)c1)/C(S)=N/CCc1ccccc1
IC50 (Vanilloid receptor [1]): > 30 nM

COc1cc(CCC2CCCN2/C(S)=N/CCc2ccccc2)ccc1O (stereo not given)
EC50 (Vanilloid receptor [2]): 3 µM

COc1cc(CCCN(/C(S)=N/CCc2ccccc2)C(c2ccccc2)c2ccccc2)ccc1O
IC50 (Vanilloid receptor [1]): 0.46 nM

COc1cc(CCCN(Cc2ccccc2)/C(S)=N/CCc2ccccc2)ccc1O
IC50 (Vanilloid receptor [1]): 0.95 nM

CC(C)N(CCCc1ccc(O)cc1)/C(S)=N/CCc1ccccc1
IC50 (Vanilloid receptor [1]): > 30 nM

COc1ccc(CCN(CCCc2ccc(O)c(OC)c2)/C(S)=N/CCc2ccccc2)cc1
IC50 (Vanilloid receptor [1]): 0.72 nM

COc1cc(CCCN(CCc2ccc(Cl)cc2)/C(S)=N/CCc2ccccc2)ccc1O
IC50 (Vanilloid receptor [1]): 0.55 nM

CC(C)N(CCCc1ccc(O)c(O)c1)/C(S)=N/CCc1ccccc1
IC50 (Vanilloid receptor [1]): 9.3 nM

COc1ccc(CCCN(/C(S)=N/CCc2ccccc2)C(C)C)cc1OC
IC50 (Vanilloid receptor [1]): 10.5 nM

COc1cc(CCCN(CCc2ccccc2)/C(S)=N/CCc2ccc(Cl)cc2)ccc1O
IC50 (Vanilloid receptor [1]): 2.4 nM

COc1cc(CCCN(C)/C(S)=N/CCc2ccccc2)ccc1O
EC50 (Vanilloid receptor [2]): > 30 µM

CCCN(CCCc1ccc(O)c(OC)c1)/C(S)=N/CCc1ccccc1
IC50 (Vanilloid receptor [1]): 12 nM

COc1cc(CCC/N=C(\S)NCCc2ccccc2)ccc1O
EC50 (Vanilloid receptor [2]): > 30 µM

COc1cc(CCCN(CCc2ccccc2)/C(S)=N/CCc2ccccc2)ccc1O
IC50 (Vanilloid receptor [1]): 0.32 nM

Oc1cc2c(cc1O)CN(C(=S)NCCc1ccc(Cl)cc1)CCC2 [CAPSAZEPINE]
IC50 (Vanilloid receptor [1]): 650000 nM

COc1cc(CCCN(CCc2ccccc2)/C(S)=N/CCc2ccc(F)cc2)ccc1O
IC50 (Vanilloid receptor [1]): 5.1 nM

COc1cc(CCCN(CCc2ccc(F)cc2)/C(S)=N/CCc2ccccc2)ccc1O
IC50 (Vanilloid receptor [1]): 1.2 nM
